Results reported in patent US5493007A, “Platelet aggregation inhibitors having high specificity for GPIIBIIIA” (Genentech, Inc., priority 1994, dated 1996).
Where “and” joins values, the source holds several entries; their conditions need not be identical. Equal values may be shown once. *1 amine or outer side, *2 acyl side, *3 side chain or, on linkers, in order; H or OH if unused. Where a SMILES comes first, the peptide text is derived from it. Bridges are numbered along the chain shown (N, C = ends). [ ]: non-standard residue; d: D form. The star is where a group is joined. Ethylenediamine = C(CN[*:2])N[*:1]; Aad = N[C@@H](CCCC(=O)O)C(=O)O; Pen = CC(C)(S)[C@H](N)C(=O)O; NH(CH2)5NH2 = NCCCCCN*; NH(CH2)4NH2 = NCCCCN*; NH(CH2)3NH2 = NCCCN*

Assays:
[1] = molecular target: T1, Vitronectin Receptor (αvβ3) (Homo sapiens, UniProt P05106+P06756); experiment: Human Vitronectin-Vitronectin Receptor (αvβ3) ELISA Assay; format: binding; conditions: purified human αvβ3, vitronectin-coated plates; read-out: ELISA IC50 Vitronectin VnR
T1 construct: Human vitronection receptor (VnR) is purified from human placenta; from tissue; host or cells: human placenta
T1 sequence (P06756 31-889 limits assumed): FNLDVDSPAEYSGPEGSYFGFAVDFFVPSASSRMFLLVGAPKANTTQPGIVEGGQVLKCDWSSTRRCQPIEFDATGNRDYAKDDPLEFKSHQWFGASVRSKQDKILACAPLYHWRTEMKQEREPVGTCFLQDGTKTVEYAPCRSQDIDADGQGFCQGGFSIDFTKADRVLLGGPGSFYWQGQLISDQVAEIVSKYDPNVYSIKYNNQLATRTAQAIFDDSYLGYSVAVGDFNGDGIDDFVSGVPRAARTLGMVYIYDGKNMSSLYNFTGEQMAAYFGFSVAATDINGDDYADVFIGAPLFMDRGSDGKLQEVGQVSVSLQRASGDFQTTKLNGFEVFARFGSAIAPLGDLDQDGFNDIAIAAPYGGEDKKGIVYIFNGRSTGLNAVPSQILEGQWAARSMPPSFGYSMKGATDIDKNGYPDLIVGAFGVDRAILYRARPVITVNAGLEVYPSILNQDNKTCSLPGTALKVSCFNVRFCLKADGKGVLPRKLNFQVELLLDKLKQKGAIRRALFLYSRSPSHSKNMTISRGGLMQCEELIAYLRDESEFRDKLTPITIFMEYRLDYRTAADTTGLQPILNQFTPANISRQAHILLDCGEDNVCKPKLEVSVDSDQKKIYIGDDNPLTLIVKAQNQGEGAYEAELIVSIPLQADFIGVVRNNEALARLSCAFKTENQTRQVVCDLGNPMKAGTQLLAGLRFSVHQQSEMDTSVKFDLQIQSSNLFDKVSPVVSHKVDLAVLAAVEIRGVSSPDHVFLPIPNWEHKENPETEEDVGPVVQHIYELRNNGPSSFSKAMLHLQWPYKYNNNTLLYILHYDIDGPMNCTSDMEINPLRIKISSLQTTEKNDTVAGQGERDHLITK
T1 sequence (P06756 891-1048 partner limits assumed): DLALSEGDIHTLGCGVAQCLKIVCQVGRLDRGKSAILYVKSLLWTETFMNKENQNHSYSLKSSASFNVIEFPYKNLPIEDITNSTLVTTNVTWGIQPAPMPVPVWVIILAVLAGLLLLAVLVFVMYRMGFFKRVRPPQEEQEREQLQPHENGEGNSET
T1 sequence (P05106 27-788): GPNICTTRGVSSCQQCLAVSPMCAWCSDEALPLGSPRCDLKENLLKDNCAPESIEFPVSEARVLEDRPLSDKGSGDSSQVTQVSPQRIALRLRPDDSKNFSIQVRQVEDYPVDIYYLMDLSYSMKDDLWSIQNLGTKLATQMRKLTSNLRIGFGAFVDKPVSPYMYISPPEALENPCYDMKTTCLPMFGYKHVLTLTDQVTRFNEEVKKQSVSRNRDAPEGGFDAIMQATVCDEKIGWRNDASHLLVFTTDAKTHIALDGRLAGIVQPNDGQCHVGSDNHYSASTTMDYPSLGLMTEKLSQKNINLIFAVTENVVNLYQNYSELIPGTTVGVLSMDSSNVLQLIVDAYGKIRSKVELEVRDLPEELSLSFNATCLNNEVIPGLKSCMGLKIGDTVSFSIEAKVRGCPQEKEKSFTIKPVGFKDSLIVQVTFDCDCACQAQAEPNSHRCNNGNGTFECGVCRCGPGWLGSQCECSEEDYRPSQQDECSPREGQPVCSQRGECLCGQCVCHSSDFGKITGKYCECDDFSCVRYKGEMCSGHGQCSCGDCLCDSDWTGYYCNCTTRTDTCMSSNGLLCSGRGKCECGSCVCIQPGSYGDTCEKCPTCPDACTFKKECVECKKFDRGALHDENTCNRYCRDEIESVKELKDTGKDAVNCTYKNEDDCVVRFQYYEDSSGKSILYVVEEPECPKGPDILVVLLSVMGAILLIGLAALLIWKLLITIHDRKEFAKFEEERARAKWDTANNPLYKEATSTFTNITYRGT
Text: Human vitronectin (Vn) is isolated from human plasma and purified by affinity chromatography by the method of Yatohgo et. al., (Cell Structure and Function 13:281-292 [1988]).
Human vitronection receptor (VnR) is purified from human placenta by the method of Pytela et al., (Methods Enzymol., 144:475 [1987]). Alternatively the αvβ3 receptor can be purified from some cell lines (e.g., human embryonic kidney 293 cells) transfected with DNA sequences for both the αv and β3 subunits. The subunits are purified by employing octylglucoside extraction followed by Con-A, Heparin-Sepharose, and S-300 Chromatography.
Anti-GP IIb IIIa monoclonal antibodies specific for human GP IIIa are prepared by the method of Newman et al. (Blood, 65:227-232 [1985]), or a similar procedure. This mouse Mab is specific for the β3 subunit of the vitronectin receptor.
Rabbit Fab 2 anti-mouse Fc fragment horse radish peroxidase conjugate (anti-MuFc HRP) is obtained from PelFreeze (cat. no. 715305-1).
Maxisorp microtiter plates are coated with 2 μg/ml human vitronectin dissolved in PBS ([…]) and stored overnight at 4° C. The plates are washed two times with PBS-0.05% Tween-20 (wash buffer) and blocked by incubating with about 150 μl/well of assay buffer (1%, BSA [RIA grade or better] in 50 mM Tris-HCl, 100 mM NaCl, 1 mM MgCl2, CaCl2, MnCl2 pH 7.4) for 60 minutes. Dilutions of standards are prepared and putative inhibitors (Table 3) are dissolved in assay buffer. The blocked plates are emptied and 25 μl/well of inhibitor or standard solution is added to each well. Twenty-five μl of a 30 μg/ml solution of purified αvβ3 in assay buffer is pipetted into the coated plate. The final concentration of receptor in the assay well is about 15 μg/ml. The plate is incubated on a shaker for 60 minutes. Meanwhile, for each microtite plate, 6 ml buffer solution containing 1.5 μg/ml of mouse monoclonal antibody specific for β3 is prepared. To this solution is added μl of the secondary antibody, which is anti-mouse-Fc-HRP antibody conjugate. For example, for one plate, prepare 6 ml of a 1.5 μg/ml mouse Mab solution to which is added 1 μl of anti-mouse-Fc-HRP antibody stock, (this represents a 1:6000 dilution of the antibody - HRP conjugate). This mixture is allowed to incubate during the receptor-inhibitor incubation. The assay plates are washed 4 times with PBS-Tween and 50 μl/well of the antibody mixture is then pipetted into the plate for a 60 minute incubation. The plate is washed 4 times and the color reaction is developed with 50 μl/well of 0.67 mg/ml o-phenyldiamine in PBS containing 0.012% H2 O2. Alternatively, 16 mM citric acid, 50 mM Na2 PO4 at pH 5.0 can be used as a substrate buffer. The reaction is stopped with 50 μl/well 1M H2 SO4. The plates are read at 492-405 nm and the data analyzed by four-parameter fit.

[2] = molecular target: human platelet rich plasma (PRP) (Homo sapiens, UniProt P05106+P08514); experiment: In Vitro Human Platelet Aggregation Assay; format: cell-based; conditions: human PRP; read-out: Human Platelet Aggregation IC50
human platelet rich plasma (PRP), sequence (P08514 32-1039): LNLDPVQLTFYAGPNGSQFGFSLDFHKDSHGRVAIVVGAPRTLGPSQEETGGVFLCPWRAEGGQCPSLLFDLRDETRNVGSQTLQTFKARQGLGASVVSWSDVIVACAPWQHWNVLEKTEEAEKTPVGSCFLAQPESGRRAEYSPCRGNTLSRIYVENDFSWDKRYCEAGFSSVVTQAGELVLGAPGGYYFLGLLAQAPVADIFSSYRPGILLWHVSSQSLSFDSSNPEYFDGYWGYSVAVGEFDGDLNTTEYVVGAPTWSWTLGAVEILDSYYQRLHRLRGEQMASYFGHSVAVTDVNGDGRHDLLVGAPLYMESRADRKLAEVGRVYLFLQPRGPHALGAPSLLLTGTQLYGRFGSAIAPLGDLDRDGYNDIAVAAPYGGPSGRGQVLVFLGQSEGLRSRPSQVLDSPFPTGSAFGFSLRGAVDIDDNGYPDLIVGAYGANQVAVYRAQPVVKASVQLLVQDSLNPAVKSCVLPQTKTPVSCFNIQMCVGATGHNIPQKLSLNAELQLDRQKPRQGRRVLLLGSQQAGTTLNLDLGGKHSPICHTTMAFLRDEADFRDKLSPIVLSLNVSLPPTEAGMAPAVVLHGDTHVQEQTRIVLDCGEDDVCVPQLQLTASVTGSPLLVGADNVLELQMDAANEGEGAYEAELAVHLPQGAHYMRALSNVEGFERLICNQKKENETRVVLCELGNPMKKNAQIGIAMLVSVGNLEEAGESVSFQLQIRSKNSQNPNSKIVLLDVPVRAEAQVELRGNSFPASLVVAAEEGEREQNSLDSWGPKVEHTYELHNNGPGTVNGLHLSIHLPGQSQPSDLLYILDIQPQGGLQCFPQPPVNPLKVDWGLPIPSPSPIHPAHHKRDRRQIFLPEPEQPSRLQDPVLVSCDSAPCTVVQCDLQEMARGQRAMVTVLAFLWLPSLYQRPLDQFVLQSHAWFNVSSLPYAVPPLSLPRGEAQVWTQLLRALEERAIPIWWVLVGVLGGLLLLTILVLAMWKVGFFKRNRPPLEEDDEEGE
human platelet rich plasma (PRP), sequence (P05106 27-788): as the sequence (P05106 27-788) above
Outline: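 Citrated human PRP, diluted with PPP to about 300,000 platelets/μl from donors free of aspirin for two weeks, was preincubated with inhibitor or PBS for 5 minutes at 25° C. Aggregation was then triggered by collagen 1 μg/ml, U46619 100 ng/ml or ADP 17 μM and followed by light transmission.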

[3] = tested on: New Zealand White rabbits; experiment: Rabbit cutaneous bleeding time (CBT); conditions: for Rabbit BT Ratio: Example 1, at the % P.A. inhibition given
Method: Unanesthetized male New Zealand White rabbits (2.5-3.5 kg) are placed in a standard rabbit restrainer. Ears are shaved and a 20 G Teflon catheter with flowswitch (Viggo) is placed in the medial artery, flushed with saline and locked with 1 ml of heparinized saline (10 m/ml). A 22 G catheter (Abbott) fitted with an injection cap (Medex) is placed in the marginal vein of the same ear. Saline or a GP IIb IIIa receptor antagonist, at a concentration of 1 to 3 mg/ml, is infused via the venous catheter. At time 0, 41% of the dose is given as a bolus over 2 minutes. The remainder is continuously infused over the following 60 minutes. Blood samples (3.2 ml) are collected into syringes without needles via the arterial catheter at -10, -5, 10, 45, and 60 minutes. The first 0.5 ml is discarded and the following 2.7 ml is collected directly into a syringe containing 0.3 ml of 3.8% sodium citrate. The sample is divided into 1.5 ml aliquots and centrifuged at room temperature for 5 seconds at 12,000 G. The resulting platelet rich plasma (PRP) is used to measure ex-vivo platelet aggregation (XPA). At -10 and 60 minutes an additional 1 cml sample is drawn for an automated blood count (Baker instruments). Catheters are flushed and locked after every sample.
CBT is measured at -10, -5, 10, and 45 minutes on the opposite ear, using an automated incision-making instrument (Surgicutt®, ITD). An incision (5mm×1 mm deep) is made on the dorsal surface of the ear at sites not supplied by major blood vessels. Blood is blotted away with absorbent paper placed near the incision site, every 2 to 15 seconds, to a maximum of 15 minutes. Cessation of bleeding is defined as no blood forming at the incision site for 15 seconds. The range of duplicate CBT in 40 normal rabbits was 0.88 to 3.38 minutes.

GP IIb IIIa = GP IIb IIIa (Homo sapiens, UniProt P05106+P08514); experiment: GP IIb IIIa -von Willebrand factor (vWF) ELISA Assay; format: binding; set-up: GP IIb IIIa, prepared by the method of Fitzgerald et al; from tissue; conditions: GP IIb IIIa-coated plates, vWF; read-out: ELISA IC50 GPIIb IIIa vWF
GP IIb IIIa, sequence (P08514 32-887 limits assumed): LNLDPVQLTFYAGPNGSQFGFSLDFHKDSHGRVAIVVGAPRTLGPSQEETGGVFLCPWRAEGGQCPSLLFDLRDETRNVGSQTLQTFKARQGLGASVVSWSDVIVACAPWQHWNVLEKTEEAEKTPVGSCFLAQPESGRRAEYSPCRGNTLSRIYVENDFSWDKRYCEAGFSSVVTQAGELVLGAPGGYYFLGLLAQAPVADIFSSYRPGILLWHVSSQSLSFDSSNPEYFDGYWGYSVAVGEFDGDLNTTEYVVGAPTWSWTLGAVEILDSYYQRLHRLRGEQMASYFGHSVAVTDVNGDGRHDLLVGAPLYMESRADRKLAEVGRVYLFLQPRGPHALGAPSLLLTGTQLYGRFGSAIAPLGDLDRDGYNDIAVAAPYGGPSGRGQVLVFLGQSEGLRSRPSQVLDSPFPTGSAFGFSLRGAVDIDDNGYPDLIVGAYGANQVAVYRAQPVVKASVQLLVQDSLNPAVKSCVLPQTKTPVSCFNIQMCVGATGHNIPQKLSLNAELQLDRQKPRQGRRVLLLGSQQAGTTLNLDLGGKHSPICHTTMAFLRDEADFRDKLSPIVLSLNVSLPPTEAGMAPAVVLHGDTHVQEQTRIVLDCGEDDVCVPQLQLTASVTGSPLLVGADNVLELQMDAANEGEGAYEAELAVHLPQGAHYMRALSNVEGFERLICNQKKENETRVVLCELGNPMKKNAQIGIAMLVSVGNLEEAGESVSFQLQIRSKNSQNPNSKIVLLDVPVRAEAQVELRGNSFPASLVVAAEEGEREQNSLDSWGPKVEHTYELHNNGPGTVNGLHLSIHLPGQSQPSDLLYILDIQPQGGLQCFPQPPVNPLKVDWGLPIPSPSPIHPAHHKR
GP IIb IIIa, sequence (P08514 891-1039 partner limits assumed): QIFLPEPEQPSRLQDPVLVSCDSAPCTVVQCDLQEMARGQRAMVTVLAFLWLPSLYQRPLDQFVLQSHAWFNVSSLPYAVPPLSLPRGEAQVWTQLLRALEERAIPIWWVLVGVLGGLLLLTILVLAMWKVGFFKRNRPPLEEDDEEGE
GP IIb IIIa, sequence (P05106 27-788): as the sequence (P05106 27-788) above
Method: Microtiter plates are coated with 1.0 μg/ml GP IIb IIIa, prepared by the method of Fitzgerald et al., (Anal. Biochem. 151:169-177 [1985]) and allowed to incubate overnight in coat buffer. The plates are then washed three times in wash buffer (0.05% Tween 20 in PBS) and 150 μl of assay buffer is added and allowed to incubate for 1-2 hours at room temperature on plate shaker. The plates are washed three times and 50 μl of 2x inhibitor in assay buffer (Assay buffer: 0.5% BSA/50 mM Tris, 100 mM NaCl, 1.0 mM CaCl2, 1.0mM MgCl2, 1.0 mM MnCl2; coat buffer is the same but without BSA) is added. Fifty μl of 4.0 μg/ml vWF (prepared as described by Ledford et al., Thrombosis and Haemostasis, 64(4): 569-575 [1990]) in assay buffer is then added and allowed to incubate for one hour at room temperature on plate-shaker. The plates are washed three times and the antibody mixture is added (1:5000 of mouse anti-vWF and 1:5000 of rabbit-anti-mouse-Fc-HRP, both commercially available) in assay buffer and incubated for 1 hour at room temperature on plate-shaker. Plates are again washed three times and 100 μl of substrate solution (10 mg OPD, 6.5 μl H2 O2, 15 ml phosphate citrate buffer) is added and incubated at room temperature. The color change of OPD/H2 O2 reagent is read at 492 nm with a 405 nm reference wavelength on the filter photometer.

Row | SMILES | IC50 [1] | IC50 [2] | cutaneous bleeding time, result in words [3] | Rabbit BT Ratio ([3]; rabbit) | IC50 (GP IIb IIIa) | increase of cutaneous bleeding time compared to the undosed animal ([3]; rabbit, dose sufficient to achieve about 97% inhibition of platelet aggregation)
1 | CC1(C)SCC(=O)N[C@H](Cc2ccc(O)cc2)C(=O)N[C@@H](CCCCN)C(=O)NCC(=O)N[C@@H](CC(=O)O)C(=O)N[C@@H]1C(=O)N[C@@H](CCCCN)C(N)=O [7/17, cyclo-S-acetyl-dTyr--Lys--Gly--Asp--Pen--Lys--NH2] ({CH2CO}-[dY]KGD[Pen]K-NH2; thioether N-5) | 100000 nM | 90 nM | without substantial increased cutaneous bleeding time | 1.13 and 1.0 | 73.1 nM | 
2 | N=C(N)NCCC[C@@H]1NC(=O)[C@@H](Cc2ccc(O)cc2)NC(=O)CSC[C@@H](C(=O)O)NC(=O)[C@H](CC(=O)O)NC(=O)CNC1=O [7/46, cyclo-S-acetyl-dTyr--Arg--Gly--Asp--Cys--OH] ({CH2CO}-[dY]RGDC-OH; thioether N-5) | 5 nM | 150 nM | prolongation of bleeding time in vivo in both the rabbit and dog model |  | 0.18 nM | 8.0 times
3 | N=C(N)NCCC[C@@H]1NC(=O)[C@@H](Cc2ccc(O)cc2)NC(=O)CSC[C@@H](C(=O)NCCCCN)NC(=O)[C@H](CC(=O)O)NC(=O)CNC1=O [8/12, cyclo-S-acetyl-dTyr--Arg--Gly--Asp--Cys--NH--X (X = butylamine)] ({CH2CO}-[dY]RGDC-{NH(CH2)4NH2}; thioether N-5) | 70 nM | 390 nM |  | 0.94 | 5.4 nM | 
4 | N=C(N)NCCC[C@@H]1NC(=O)[C@@H](Cc2ccc(O)cc2)NC(=O)CSC[C@@H](C(=O)NCCCCCN)NC(=O)[C@H](CC(=O)O)NC(=O)CNC1=O [8/13, cyclo-S-acetyl-dTyr--Arg--Gly--Asp--Cys--NH--X (X = pentylamine)] ({CH2CO}-[dY]RGDC-{NH(CH2)5NH2}; thioether N-5) | 32 nM | 590 nM |  | 1.13 | 5.3 nM | 
5 | N=C(N)NCCC[C@@H]1NC(=O)[C@@H](Cc2ccc(O)cc2)NC(=O)CSC[C@@H](C(=O)NCCCN)NC(=O)[C@H](CC(=O)O)NC(=O)CNC1=O [8/22, cyclo-S-acetyl-dTyr--Arg--Gly--Asp--Cys--NH--X (X = propyl amine)] ({CH2CO}-[dY]RGDC-{NH(CH2)3NH2}; thioether N-5) | 36 nM | 387 nM |  | 1.27 | 4.73 nM | 
6 | N=C(N)NCCC[C@@H]1NC(=O)[C@@H](Cc2ccc(O)cc2)NC(=O)CSC[C@@H](C(=O)NCCN)NC(=O)[C@H](CC(=O)O)NC(=O)CNC1=O [8/23, cyclo-S-acetyl-dTyr--Arg--Gly--Asp--Cys--NH--X (X = ethyl amine)] ({CH2CO}-[dY]RGDC-Ethylenediamine; thioether N-5) | 35 nM | 470 nM |  | 0.81 | 4.67 nM | 
7 | N=C(N)NCCC[C@@H]1NC(=O)[C@@H](Cc2ccc(O)cc2)NC(=O)CCC[C@@H](C(=O)N[C@@H](CCCCN)C(N)=O)NC(=O)[C@H](CC(=O)O)NC(=O)CNC1=O [10/20, cyclo(1-5)dTyr--Arg--Gly--Asp--L-α-aminoadipic acid-Lys--NH2] ([dY]RGD[Aad]K-NH2; lactam N-5) | 20 nM | 183 nM |  | 2,0 | 2.74 nM | 
